According to patent US9586965B2, “Pyrrolo[2,3-d]pyrimidine compounds as inhibitors of protein kinases” (ACEA BIOSCIENCES INC., priority 2012, dated 2017):
Several values for one entry are separate records, joined by “and”; a condition that tells them apart may be missing. Equal entries are not always repeated. Where two headings read alike, the source gives them in different places.

How the values were obtained:
[1] = target: EGFR (pY1068) in H1975 cell (T790M/L858R) (Homo sapiens (Human), UniProt P00533, L858R/T790M); assay: pEGFR sandwich ELISA assay (Examples B-2, B-3, Table 21); type: cell-based; conditions: for IC50: read-out: IC50 (uM) H1975 T790M/L858R (no EGF stimulation)
EGFR (pY1068) in H1975 cell (T790M/L858R), sequence (P00533 25-1210 T790M/L858R): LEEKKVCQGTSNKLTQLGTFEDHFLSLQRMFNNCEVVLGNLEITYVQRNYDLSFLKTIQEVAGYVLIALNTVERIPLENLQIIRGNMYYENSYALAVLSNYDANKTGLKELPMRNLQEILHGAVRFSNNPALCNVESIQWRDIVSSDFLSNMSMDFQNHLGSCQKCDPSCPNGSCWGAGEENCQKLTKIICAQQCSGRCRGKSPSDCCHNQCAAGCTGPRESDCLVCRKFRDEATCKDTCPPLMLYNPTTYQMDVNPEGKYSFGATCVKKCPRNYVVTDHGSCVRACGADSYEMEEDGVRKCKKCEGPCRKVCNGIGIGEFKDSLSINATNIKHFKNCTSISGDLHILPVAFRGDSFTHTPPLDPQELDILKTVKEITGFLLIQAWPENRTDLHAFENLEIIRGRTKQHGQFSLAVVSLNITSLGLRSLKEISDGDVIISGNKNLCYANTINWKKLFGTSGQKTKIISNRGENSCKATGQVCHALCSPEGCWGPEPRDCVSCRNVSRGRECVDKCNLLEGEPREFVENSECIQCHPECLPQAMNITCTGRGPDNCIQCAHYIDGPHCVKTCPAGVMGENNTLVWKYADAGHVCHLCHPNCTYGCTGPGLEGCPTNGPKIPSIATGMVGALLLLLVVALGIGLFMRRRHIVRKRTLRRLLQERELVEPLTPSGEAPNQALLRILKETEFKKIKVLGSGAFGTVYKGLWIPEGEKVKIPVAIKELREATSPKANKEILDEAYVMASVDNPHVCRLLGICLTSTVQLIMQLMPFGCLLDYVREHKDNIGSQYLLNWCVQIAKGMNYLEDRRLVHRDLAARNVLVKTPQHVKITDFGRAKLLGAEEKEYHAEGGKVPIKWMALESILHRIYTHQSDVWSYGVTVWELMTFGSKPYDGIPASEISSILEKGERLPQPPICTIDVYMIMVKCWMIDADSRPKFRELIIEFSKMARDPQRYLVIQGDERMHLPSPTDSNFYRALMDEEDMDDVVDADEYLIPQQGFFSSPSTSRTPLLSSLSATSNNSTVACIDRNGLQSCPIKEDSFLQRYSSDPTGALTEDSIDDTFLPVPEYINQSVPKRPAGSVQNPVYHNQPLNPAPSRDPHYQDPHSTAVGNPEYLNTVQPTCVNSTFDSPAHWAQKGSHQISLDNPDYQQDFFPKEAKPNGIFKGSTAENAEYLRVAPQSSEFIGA

[2] = target: EGFR (pY1068) in A431 cell (WT) (Homo sapiens (Human), UniProt P00533); assay: as above; type: cell-based; conditions: read-out: IC50 (uM) A431 WT (EGF stimulation)
EGFR (pY1068) in A431 cell (WT), sequence (P00533 25-1210): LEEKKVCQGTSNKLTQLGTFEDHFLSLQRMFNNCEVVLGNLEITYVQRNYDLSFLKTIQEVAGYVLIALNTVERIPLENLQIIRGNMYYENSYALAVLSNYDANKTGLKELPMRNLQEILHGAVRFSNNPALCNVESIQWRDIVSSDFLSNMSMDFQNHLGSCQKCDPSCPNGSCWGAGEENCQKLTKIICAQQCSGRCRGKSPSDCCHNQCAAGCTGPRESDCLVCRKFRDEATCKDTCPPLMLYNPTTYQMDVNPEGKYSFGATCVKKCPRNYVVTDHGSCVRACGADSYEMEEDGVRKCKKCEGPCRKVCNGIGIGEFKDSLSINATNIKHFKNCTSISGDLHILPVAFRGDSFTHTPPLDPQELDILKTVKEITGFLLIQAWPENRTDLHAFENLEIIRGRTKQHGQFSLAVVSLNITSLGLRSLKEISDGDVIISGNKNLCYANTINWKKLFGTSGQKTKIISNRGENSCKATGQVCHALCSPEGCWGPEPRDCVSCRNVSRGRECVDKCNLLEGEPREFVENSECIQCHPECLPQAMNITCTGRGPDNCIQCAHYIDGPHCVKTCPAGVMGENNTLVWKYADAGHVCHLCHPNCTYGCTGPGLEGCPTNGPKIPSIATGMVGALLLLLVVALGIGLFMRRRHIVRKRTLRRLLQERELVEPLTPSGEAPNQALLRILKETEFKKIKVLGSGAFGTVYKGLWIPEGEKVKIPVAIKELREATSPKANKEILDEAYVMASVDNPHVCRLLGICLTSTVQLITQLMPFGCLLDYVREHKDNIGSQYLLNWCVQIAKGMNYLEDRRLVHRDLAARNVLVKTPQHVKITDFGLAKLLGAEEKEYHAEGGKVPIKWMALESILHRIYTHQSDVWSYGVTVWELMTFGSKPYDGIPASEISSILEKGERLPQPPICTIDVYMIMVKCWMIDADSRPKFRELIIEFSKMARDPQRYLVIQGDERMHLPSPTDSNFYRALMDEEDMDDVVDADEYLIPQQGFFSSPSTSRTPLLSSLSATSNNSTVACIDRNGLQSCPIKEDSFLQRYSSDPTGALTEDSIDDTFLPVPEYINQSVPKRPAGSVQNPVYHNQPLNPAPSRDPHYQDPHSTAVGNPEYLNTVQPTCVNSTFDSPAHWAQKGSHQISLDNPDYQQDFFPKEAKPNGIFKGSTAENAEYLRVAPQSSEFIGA

BTK = BTK (Homo sapiens (Human), UniProt Q06187); assay: HotSpot kinase assay; type: biochemical; conditions: Enzymatic Assays; Table 22; unit inferred
BTK, sequence (Q06187 whole entry): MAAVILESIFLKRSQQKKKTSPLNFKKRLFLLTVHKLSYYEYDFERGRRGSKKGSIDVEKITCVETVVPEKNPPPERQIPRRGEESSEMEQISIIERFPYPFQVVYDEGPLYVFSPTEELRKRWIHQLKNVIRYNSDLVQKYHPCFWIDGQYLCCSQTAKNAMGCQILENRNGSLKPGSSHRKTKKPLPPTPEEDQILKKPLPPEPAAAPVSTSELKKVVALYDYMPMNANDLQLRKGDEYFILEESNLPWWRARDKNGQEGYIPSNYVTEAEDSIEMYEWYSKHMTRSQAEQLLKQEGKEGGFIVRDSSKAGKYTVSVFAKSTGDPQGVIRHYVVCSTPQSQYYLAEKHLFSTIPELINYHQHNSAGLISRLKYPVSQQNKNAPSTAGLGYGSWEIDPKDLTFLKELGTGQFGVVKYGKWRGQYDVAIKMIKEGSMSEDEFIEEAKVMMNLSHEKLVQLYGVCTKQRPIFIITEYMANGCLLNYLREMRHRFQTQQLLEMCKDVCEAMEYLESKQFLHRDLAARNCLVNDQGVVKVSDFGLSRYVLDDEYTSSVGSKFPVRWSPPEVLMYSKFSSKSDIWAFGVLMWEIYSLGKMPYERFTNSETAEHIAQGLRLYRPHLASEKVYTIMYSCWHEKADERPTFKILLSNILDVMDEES
Experimental: (§1) Assay Description. In vitro profiling protein kinases was performed using the “HotSpot” assay platform. Briefly, specific kinase/substrate pairs along with required cofactors were prepared in reaction buffer. Compounds were delivered into the reaction, followed 15-20 minutes later by addition of a mixture of ATP (Sigma, St. Louis Mo.) and ^33P ATP (Perkin Elmer, Waltham Mass.) to a final concentration of 10 μM. […] IC50 values and curve fits were obtained using Prism (GraphPad Software).
(§2) Reaction Conditions: Buffer Conditions: 20 mM Hepes (pH 7.5), 10 mM MgCl2, 1 mM EGTA, 0.02% Brij35, 0.02 mg/mL BSA, 0.1 mM Na3VO4, 2 mM DTT, and 1% DMSO. ATP concentration: 10 μM. Reaction Time: 2 hours. […] All kinase reactions were performed at 10 uM ATP. Test concentrations are provided below in molar units (M).

JAK2 = JAK2 (Homo sapiens (Human), UniProt O60674); assay: HotSpot kinase assay; type: biochemical; conditions: Enzymatic Assays; Table 22; unit inferred
JAK2, sequence (O60674 809-1132): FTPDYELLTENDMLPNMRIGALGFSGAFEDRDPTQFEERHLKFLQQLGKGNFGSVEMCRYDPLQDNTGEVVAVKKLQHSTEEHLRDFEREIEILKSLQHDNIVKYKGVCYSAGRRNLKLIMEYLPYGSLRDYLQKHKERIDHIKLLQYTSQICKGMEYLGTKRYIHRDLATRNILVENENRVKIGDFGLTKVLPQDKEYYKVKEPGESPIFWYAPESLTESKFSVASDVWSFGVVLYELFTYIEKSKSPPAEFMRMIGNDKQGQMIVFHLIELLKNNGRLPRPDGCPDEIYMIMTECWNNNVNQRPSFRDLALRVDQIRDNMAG
Experimental: as §1, §2

JAK3 = JAK3 (Homo sapiens (Human), UniProt P52333); assay: HotSpot kinase assay; type: biochemical; conditions: Enzymatic Assays; Table 22; unit inferred
JAK3, sequence (P52333 781-1124): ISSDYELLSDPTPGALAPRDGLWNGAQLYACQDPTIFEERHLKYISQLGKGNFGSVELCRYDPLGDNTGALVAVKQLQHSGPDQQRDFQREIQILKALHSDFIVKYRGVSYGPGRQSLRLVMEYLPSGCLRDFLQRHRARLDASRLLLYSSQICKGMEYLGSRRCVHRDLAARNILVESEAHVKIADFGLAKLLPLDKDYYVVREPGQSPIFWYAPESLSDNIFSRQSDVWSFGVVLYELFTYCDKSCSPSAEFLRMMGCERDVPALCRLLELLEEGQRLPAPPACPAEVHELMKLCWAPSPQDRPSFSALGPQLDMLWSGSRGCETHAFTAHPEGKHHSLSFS
Experimental: as §1, §2

human wt BTK = human wt BTK (Homo sapiens (Human), UniProt Q06187); assay: ClariCELL BTK cell-based assay; conditions: Cell-based Assays (CAI) IC50(μM) BTK, HEK293 transfected with human wt BTK; 2 hours; repeat runs
human wt BTK, sequence (Q06187 whole entry): as the sequence (Q06187 whole entry) above
Description: (§3) Protocol for ClariCELL™ JAK3 and BTK Assays is described below: • HEK293 human embryonic kidney cells were transiently transfected with either human wt BTK, human wt JAK3, or kinase-dead human JAK3 (for JAK3 negative controls).

human wt JAK3 = human wt JAK3 (Homo sapiens (Human), UniProt P52333); assay: ClariCELL JAK3 cell-based assay; conditions: Cell-based Assays (CAI) IC50(μM) JAK3, HEK293 transfected with human wt JAK3; 2 hours; repeat runs
human wt JAK3, sequence (P52333 whole entry): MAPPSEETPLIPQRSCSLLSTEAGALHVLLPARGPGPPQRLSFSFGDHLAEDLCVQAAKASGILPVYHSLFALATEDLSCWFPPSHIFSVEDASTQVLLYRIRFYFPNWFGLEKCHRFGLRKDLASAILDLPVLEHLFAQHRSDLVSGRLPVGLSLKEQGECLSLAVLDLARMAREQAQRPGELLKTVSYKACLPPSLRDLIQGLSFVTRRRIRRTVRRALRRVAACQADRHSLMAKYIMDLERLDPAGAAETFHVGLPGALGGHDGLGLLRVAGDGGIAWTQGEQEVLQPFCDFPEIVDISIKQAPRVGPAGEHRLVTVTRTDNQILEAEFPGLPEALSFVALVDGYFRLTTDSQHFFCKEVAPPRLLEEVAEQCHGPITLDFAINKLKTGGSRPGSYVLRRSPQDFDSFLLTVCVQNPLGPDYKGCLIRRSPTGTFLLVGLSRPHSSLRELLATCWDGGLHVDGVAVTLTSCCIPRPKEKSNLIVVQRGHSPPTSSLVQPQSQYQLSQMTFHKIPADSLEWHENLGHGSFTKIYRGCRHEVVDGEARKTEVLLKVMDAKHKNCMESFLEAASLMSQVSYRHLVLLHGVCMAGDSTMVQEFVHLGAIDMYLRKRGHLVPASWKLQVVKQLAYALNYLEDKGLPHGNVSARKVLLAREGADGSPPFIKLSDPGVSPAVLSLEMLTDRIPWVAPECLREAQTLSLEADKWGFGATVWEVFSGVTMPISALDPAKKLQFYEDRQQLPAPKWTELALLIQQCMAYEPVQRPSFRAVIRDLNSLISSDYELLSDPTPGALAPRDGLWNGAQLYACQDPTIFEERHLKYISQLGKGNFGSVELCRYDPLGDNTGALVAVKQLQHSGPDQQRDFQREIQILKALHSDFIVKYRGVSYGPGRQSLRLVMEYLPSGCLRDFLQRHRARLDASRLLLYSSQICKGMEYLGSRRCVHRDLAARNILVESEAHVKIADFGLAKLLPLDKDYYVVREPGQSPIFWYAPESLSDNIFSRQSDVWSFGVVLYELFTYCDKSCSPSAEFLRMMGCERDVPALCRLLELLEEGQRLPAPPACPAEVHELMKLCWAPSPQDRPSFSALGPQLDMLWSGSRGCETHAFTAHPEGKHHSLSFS
Description: as §3

[3] = test system: A431 (WT) human skin epidermoid carcinoma xenograft; conditions: for Tumor volume: 100 mpk PO QD
Experimental: Each mouse was inoculated subcutaneously at the right flank with H1975 cells (5×10^6), HCC827 (5×10^6) and A431 (5×10^6) respectively in 0.2 ml of medium for tumor development. The treatments were started when the tumor size reached approximately 200-250 mm^3. The testing articles were administrated to the mice according to the predetermined regimen as shown in the experimental design table.
All the procedures related to animal handling, care and the treatment in this study were performed according to the guidelines approved by the Institutional Animal Care and Use Committee (IACUC) following the guidance of the Association for Assessment and Accreditation of Laboratory Animal Care (AAALAC). At the time of routine monitoring, the animals were checked for any effects of tumor growth and treatments on normal behavior such as mobility, food and water consumption (by observation), body weight gain/loss (body weights were measured twice weekly), eye/hair matting and any other abnormal effect. Death and observed clinical signs were recorded on the basis of the numbers of animals within each subset.
The major endpoint was to see if the tumor growth can be delayed or mice can be cured. Tumor size was measured twice weekly in two dimensions using a caliper, and the volume was expressed in mm^3 using the formula: V=0.5 a×b^2 where a and b are the long and short diameters of the tumor, respectively. The tumor size was then used for calculations of both T-C and T/C values. T-C was calculated with T as the median time (in days) required for the treatment group tumors to reach a predetermined size (e.g., 1,000 mm^3), and C as the median time (in days) for the control group tumors to reach the same size. The T/C value (in percent) was an indication of antitumor effectiveness; T and C were the mean volume of the treated and control groups, respectively, on a given day. Tumor weight was measured at the study termination. The T/C value (in percent) was calculated where T and C were the mean tumor weights of the treated and control groups, respectively.

Selectivity A431/H1975 [1] | IC50 [1] [µM] | IC50 [2] [µM] | Structure (SMILES) | further results
300.00 | 0.001 | 0.3 | C=CC(=O)Nc1cccc(Oc2nc(Nc3ccc(N4CCN(C)CC4)nc3)nc3[nH]ccc23)c1 [Compound 2, N-(3-(2-(6-(4-methylpiperazin-1-yl)pyridin-3-ylamino)-7H-pyrrolo[2,3-d]pyrimidin-4-yloxy)phenyl)acrylamide] | IC50 (BTK): 0.362 nM; IC50 (JAK2): 2060 nM; IC50 (JAK3): 0.0365 nM; IC50 (human wt BTK): 0.012 µM and 0.059 µM; IC50 (human wt JAK3): 0.2 µM and 0.36 µM
162.69 | 0.067 | 10.9 | C=CC(=O)Nc1cccc(Oc2nc(Nc3ccc(N4CCN(C)CC4)cc3)nc3c2ccn3CO)c1 [Compound 4, N-(3-((7-(hydroxymethyl)-2-((4-(4-methylpiperazin-1-yl)phenyl)amino)-7H-pyrrolo[2,3-d]pyrimidin-4-yl)oxy)phenyl)acrylamide] | 
113.17 | 0.243 | 27.5 | C=CC(=O)Nc1cccc(Oc2nc(Nc3ccc(N4CCN(C)CC4)nc3)nc3c2ccn3CO)c1 [Compound 5, N-(3-(7-(hydroxymethyl)-2-(6-(4-methylpiperazin-1-yl)pyridin-3-ylamino)-7H-pyrrolo[2,3-d]pyrimidin-4-yloxy)phenyl)acrylamide] | 
232.91 | 0.0398 | 9.27 | C=CC(=O)Nc1cccc(Oc2nc(Nc3ccc(N4CCN(C)CC4)c(F)c3)nc3c2ccn3CO)c1 [Compound 6, N-(3-(2-(3-fluoro-4-(4-methylpiperazin-1-yl)phenylamino)-7-(hydroxymethyl)-7H-pyrrolo[2,3-d]pyrimidin-4-yloxy)phenyl)acrylamide] | 
 | 12.4 | > 20 | C=CC(=O)Nc1cccc(Oc2nc(Nc3ccc(N4CCN(C)CC4)cc3)nc3c2ccn3CCF)c1 [Compound 7, N-(3-(7-(2-fluoroethyl)-2-(4-(4-methylpiperazin-1-yl)phenylamino)-7H-pyrrolo[2,3-d]pyrimidin-4-yloxy)phenyl)acrylamide] | 
92.95 | 0.0217 | 2.02 | C=CC(=O)Nc1cccc(Oc2nc(Nc3ccc(NC4CN(CCF)C4)cc3OC)nc3[nH]ccc23)c1 [Compound 34, N-(3-(2-(4-(1-(2-fluoroethyl)azetidin-3-ylamino)-2-methoxyphenylamino)-7H-pyrrolo[2,3-d]pyrimidin-4-yloxy)phenyl)acrylamide] | 
 |  |  | COc1cc2ncnc(Nc3ccc(F)c(Cl)c3)c2cc1OCCCN1CCOCC1 [Gefitinib] | T-C (days) at 300 mm^3 ([3]; 100 mg/kg po qd): >14 days; T/C (%) ([3]; 100 mg/kg po qd): 8.7%; Tumor Weight (g) at day 23(14) ([3]; 100 mg/kg po qd): 0.13 ± 0.03 g; Mouse Weight (g) at day 25(14) ([3]; 100 mg/kg po qd, Mean ± SEM): 21.56 ± 0.51 g; Tumor Size (mm^3) at day 25(14) ([3]; 100 mg/kg po qd, Mean ± SEM, Table 16): 154 ± 33 mm^3; Tumor volume ([3]; day 11, Mean ± SEM): 239.83 ± 23.30 mm^3; Tumor volume ([3]; day 18, Mean ± SEM): 139.70 ± 26.94 mm^3; Tumor volume ([3]; day 21, Mean ± SEM): 139.70 ± 22.07 mm^3; Tumor volume ([3]; day 25, Mean ± SEM): 154.79 ± 32.62 mm^3
